# Experiments:
# MDA-MB-453 [1] = test: normalised viability (% of control), CellTiter-Blue; higher = more viable cells (about 100 = DMSO control); settings: incubation time: 72 h
# Protocol: (§1)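 DSRT, CellTiter-Blue viability, 72 h incubation. Signal is normalised to DMSO and benzethonium chloride controls. Value is the normalised response at dose 9.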
# DU-4475 [2] = test: as above; settings: incubation time: 72 h
# Protocol: as §1
# CAL-85-1 [3] = test: as above; settings: incubation time: 72 h
# Protocol: as §1
# HDQ-P1 [4] = test: as above; settings: incubation time: 72 h
# Protocol: as §1
# MDA-MB-453 [5] = settings: 72 h
# How it was run: (§2)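 After 72 h on 384-well plates pre-loaded with compound in 5 µl medium, breast cancer cell lines seeded in 20 µl were assayed for viability with 2.5 µl CellTiter-Blue at 37 °C for 2 h, read at 560/590 nm. Each plate was quality-checked by Z'-factor and normalised to vehicle and a positive kill control. EC50 comes from the fitted percent-inhibition dose-response curve, censored at the top concentration, and rows scoring zero for drug sensitivity were left out.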
# DU-4475 [6] = settings: 72 h
# How it was run: as §2
# CAL-85-1 [7] = settings: 72 h
# How it was run: as §2
# HDQ-P1 [8] = settings: 72 h
# How it was run: as §2
# Hs578T [9] = settings: 72 h
# How it was run: as §2
# MDA-MB-468 [10] = settings: 72 h
# How it was run: as §2
# HCC1599 [11] = settings: 72 h
# How it was run: as §2
# BT-474 [12] = settings: 72 h
# How it was run: as §2
# MFM-223 [13] = settings: 72 h
# How it was run: as §2
# HCC1143 [14] = settings: 72 h
# How it was run: as §2
# MDA-MB-231 [15] = settings: 72 h
# How it was run: as §2
# CAL-51 = settings: 72 h
# How it was run: (§3)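 Per-plate normalisation used 0.1 % DMSO and a positive kill control. Breast cancer cell lines (20 µl suspension) were seeded into 384-well plates containing compound at 5 concentrations in 10-fold steps across a compound-specific 10,000-fold range, incubated for 72 h, and read first for CellTox Green fluorescence (485/520 nm), then for CellTiter-Glo luminescence. EC50 was fitted from the dose-response curves and censored at the top concentration.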
# Hs578T [16] = settings: 72 h; remark: listed apart in the source
# How it was run: as §3
# HCC1599 [17] = settings: 72 h; remark: listed apart in the source
# How it was run: as §3
# HCC1937 = settings: 72 h
# How it was run: as §3
# DU-4475 [18] = settings: 72 h; remark: listed apart in the source
# How it was run: as §3
# CAL-85-1 [19] = settings: 72 h; remark: listed apart in the source
# How it was run: as §3
# BT-474 [20] = settings: 72 h; remark: listed apart in the source
# How it was run: as §3
# HDQ-P1 [21] = settings: 72 h; remark: listed apart in the source
# How it was run: as §3
# MDA-MB-231 [22] = settings: 72 h; remark: listed apart in the source
# How it was run: as §3
# CAL-148 = settings: 72 h
# How it was run: as §3
# MCF-10A = settings: 72 h
# How it was run: as §3
# BT-549 = settings: 72 h
# How it was run: as §3
# MDA-MB-453 [23] = settings: 72 h; remark: listed apart in the source
# How it was run: as §3
# SK-BR-3 = settings: 72 h
# How it was run: as §3
# CAL-85-1 [24] = settings: 72 h; remark: listed apart in the source
# Protocol: (§4)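 Drug sensitivity and resistance testing (DSRT) of breast cancer cell lines in 384-well plates, 5 concentrations in 10-fold dilutions over a compound-specific 10,000-fold range. After 72 h, cytotoxicity was read by CellTox Green fluorescence and viability by CellTiter-Glo luminescence (multiplexed), normalised to DMSO and benzethonium chloride controls. EC50 is the inflection point of the fitted dose-response curve (bottom asymptote free, so it can be relative for partial curves) and is censored at the highest tested concentration. Rows with DSS 0 (no meaningful response) were excluded.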
# MDA-MB-436 = settings: 72 h
# How it was run: as §3
# MFM-223 [25] = settings: 72 h; remark: listed apart in the source
# How it was run: as §3
# HCC1143 [26] = settings: 72 h; remark: listed apart in the source
# How it was run: as §3
# Hs578T [27] = settings: 72 h; remark: listed apart in the source
# Protocol: as §4
# MDA-MB-468 [28] = settings: 72 h; remark: listed apart in the source
# Protocol: as §4
# MDA-MB-231 [29] = settings: 72 h; remark: listed apart in the source
# Protocol: as §4
compound,measurement,setting,value
N#CC[C@H](C1CCCC1)n1cc(-c2ncnc3[nH]ccc23)cn1 [Ruxolitinib] (10000 nM),normalised viability,MDA-MB-453 [1],66.1%
same,normalised viability,DU-4475 [2],113%
same,normalised viability,CAL-85-1 [3],115%
same,normalised viability,HDQ-P1 [4],107%
COc1cc(Nc2ncc3c(n2)-c2ccc(Cl)cc2C(c2c(F)cccc2OC)=NC3)ccc1C(=O)O [MLN8237],"EC50, CellTiter-Blue viability",MDA-MB-453 [5],11.1 nM
same,"EC50, CellTiter-Blue viability",DU-4475 [6],57.5 nM
same,"EC50, CellTiter-Blue viability",CAL-85-1 [7],29.6 nM
same,"EC50, CellTiter-Blue viability",HDQ-P1 [8],51 nM
same,"EC50, CellTiter-Blue viability",Hs578T [9],41.8 nM
same,"EC50, CellTiter-Blue viability",MDA-MB-468 [10],76.2 nM
same,"EC50, CellTiter-Blue viability",HCC1599 [11],2050 nM
same,"EC50, CellTiter-Blue viability",BT-474 [12],1160 nM
same,"EC50, CellTiter-Blue viability",MFM-223 [13],388 nM
same,"EC50, CellTiter-Blue viability",HCC1143 [14],68.7 nM
same,"EC50, CellTiter-Blue viability",MDA-MB-231 [15],502 nM
Cc1ccc(F)c(NC(=O)Nc2ccc(-c3cccc4[nH]nc(N)c34)cc2)c1 [Linifanib],"EC50, CellTiter-Glo",CAL-51,411 nM
S=c1[nH]cnc2nc[nH]c12 [Mercaptopurine],"EC50, CellTiter-Blue viability",MDA-MB-468 [10],387 nM
same,"EC50, CellTiter-Glo",Hs578T [16],985 nM
same,"EC50, CellTiter-Glo",HCC1599 [17],3820 nM
same,"EC50, CellTiter-Glo",HCC1937,833 nM
same,"EC50, CellTiter-Glo",DU-4475 [18],1820 nM
same,"EC50, CellTiter-Glo",CAL-85-1 [19],4410 nM
same,"EC50, CellTiter-Glo",BT-474 [20],3920 nM
same,"EC50, CellTiter-Glo",HDQ-P1 [21],569 nM
same,"EC50, CellTiter-Glo",MDA-MB-231 [22],906 nM
C=CC[C@@H]1/C=C(\C)C[C@H](C)C[C@H](OC)[C@H]2O[C@@](O)(C(=O)C(=O)N3CCCC[C@H]3C(=O)O[C@H](/C(C)=C/[C@@H]3CC[C@@H](O)[C@H](OC)C3)[C@H](C)[C@@H](O)CC1=O)[C@H](C)C[C@@H]2OC [Tacrolimus] (10000 nM),normalised viability,MDA-MB-453 [1],98.6%
same,normalised viability,DU-4475 [2],107%
same,normalised viability,CAL-85-1 [3],100%
same,normalised viability,HDQ-P1 [4],136%
CS(=O)(=O)c1ccc(C(=O)Nc2ccc(Cl)c(-c3ccccn3)c2)c(Cl)c1 [Vismodegib] (10000 nM),normalised viability,MDA-MB-453 [1],86.5%
same,normalised viability,DU-4475 [2],123%
same,normalised viability,CAL-85-1 [3],104%
same,normalised viability,HDQ-P1 [4],89.3%
COc1cccc2cc(-c3nc([C@H]4CC[C@H](C(=O)O)CC4)n4ncnc(N)c34)[nH]c12 [OSI-027] (10000 nM),normalised viability,MDA-MB-453 [1],12.5%
same,normalised viability,DU-4475 [2],30.1%
same,normalised viability,CAL-85-1 [3],25.2%
same,normalised viability,HDQ-P1 [4],20.2%
CN(C)C/C=C/C(=O)Nc1cc2c(Nc3ccc(F)c(Cl)c3)ncnc2cc1O[C@H]1CCOC1 [Afatinib],"EC50, CellTiter-Blue viability",MDA-MB-453 [5],45.7 nM
same,"EC50, CellTiter-Blue viability",CAL-85-1 [7],147 nM
same,"EC50, CellTiter-Blue viability",HDQ-P1 [8],398 nM
same,"EC50, CellTiter-Blue viability",Hs578T [9],4260 nM
same,"EC50, CellTiter-Blue viability",MDA-MB-468 [10],1160 nM
same,"EC50, CellTiter-Blue viability",BT-474 [12],20.9 nM
same,"EC50, CellTiter-Blue viability",MFM-223 [13],3740 nM
same,"EC50, CellTiter-Blue viability",MDA-MB-231 [15],2010 nM
same,"EC50, CellTiter-Glo",CAL-148,24.1 nM
same,"EC50, CellTiter-Glo",MCF-10A,6.58 nM
same,"EC50, CellTiter-Glo",BT-549,> 1000 nM
same,"EC50, CellTiter-Glo",MDA-MB-453 [23],54.7 nM
same,"EC50, CellTiter-Glo",CAL-85-1 [19],35.2 nM
same,"EC50, CellTiter-Glo",SK-BR-3,10.7 nM
same,"EC50, CellTiter-Glo",HDQ-P1 [21],9.48 nM
same,"EC50, CellTox Green",CAL-85-1 [24],19.7 nM
CO[C@H]1C[C@@H]2CC[C@@H](C)[C@@](O)(O2)C(=O)C(=O)N2CCCC[C@H]2C(=O)O[C@H]([C@H](C)C[C@@H]2CC[C@@H](OC(=O)C(C)(CO)CO)[C@H](OC)C2)CC(=O)[C@H](C)/C=C(\C)[C@@H](O)[C@@H](OC)C(=O)[C@H](C)C[C@H](C)/C=C/C=C/C=C/1C [Temsirolimus],"EC50, CellTiter-Blue viability",MDA-MB-453 [5],0.37 nM
same,"EC50, CellTiter-Blue viability",DU-4475 [6],2.16 nM
same,"EC50, CellTiter-Blue viability",CAL-85-1 [7],0.11 nM
same,"EC50, CellTiter-Blue viability",HDQ-P1 [8],1.34 nM
same,"EC50, CellTiter-Blue viability",Hs578T [9],1 nM
same,"EC50, CellTiter-Blue viability",MDA-MB-468 [10],0.39 nM
same,"EC50, CellTiter-Blue viability",BT-474 [12],0.67 nM
same,"EC50, CellTiter-Blue viability",MFM-223 [13],0.18 nM
same,"EC50, CellTiter-Blue viability",HCC1143 [14],1.62 nM
same,"EC50, CellTiter-Glo",CAL-148,1.28 nM
same,"EC50, CellTiter-Glo",Hs578T [16],0.15 nM
same,"EC50, CellTiter-Glo",BT-549,0.32 nM
same,"EC50, CellTiter-Glo",MDA-MB-453 [23],1.5 nM
same,"EC50, CellTiter-Glo",HCC1937,0.46 nM
same,"EC50, CellTiter-Glo",DU-4475 [18],1.42 nM
same,"EC50, CellTiter-Glo",MDA-MB-436,6.71 nM
same,"EC50, CellTiter-Glo",CAL-85-1 [19],0.67 nM
same,"EC50, CellTiter-Glo",SK-BR-3,0.46 nM
same,"EC50, CellTiter-Glo",HDQ-P1 [21],17.9 nM
same,"EC50, CellTiter-Glo",CAL-51,0.65 nM
same,"EC50, CellTiter-Glo",MFM-223 [25],0.77 nM
same,"EC50, CellTiter-Glo",HCC1143 [26],0.8 nM
same,"EC50, CellTox Green",Hs578T [27],1.28 nM
C[C@]1(c2nc3c(C(N)=O)cccc3[nH]2)CCCN1 [Veliparib],"EC50, CellTiter-Glo",CAL-51,50 nM
same,"EC50, CellTox Green",CAL-85-1 [24],> 10000 nM
S=c1[nH]cnc2nc[nH]c12 [Mercaptopurine] (10000 nM),normalised viability,MDA-MB-453 [1],100%
same,normalised viability,DU-4475 [2],102%
same,normalised viability,CAL-85-1 [3],80.3%
same,normalised viability,HDQ-P1 [4],90.3%
Nc1nc(Cl)nc2c1ncn2[C@H]1C[C@H](O)[C@@H](CO)O1 [Cladribine],"EC50, CellTiter-Blue viability",DU-4475 [6],879 nM
same,"EC50, CellTiter-Blue viability",HCC1143 [14],> 1000 nM
same,"EC50, CellTiter-Blue viability",MDA-MB-231 [15],9.12 nM
same,"EC50, CellTiter-Glo",BT-549,125 nM
same,"EC50, CellTox Green",MDA-MB-468 [28],2.5 nM
same,"EC50, CellTox Green",MDA-MB-231 [29],> 1000 nM
COc1cccc2c1C(=O)c1c(O)c3c(c(O)c1C2=O)C[C@@](O)(C(=O)CO)C[C@@H]3O[C@H]1C[C@H](N)[C@H](O)[C@H](C)O1 [Doxorubicin] (1000 nM),normalised viability,MDA-MB-453 [1],3.55%
same,normalised viability,DU-4475 [2],-2.19%
same,normalised viability,CAL-85-1 [3],7.31%
same,normalised viability,HDQ-P1 [4],13.7%
C[C@]1(c2nc3c(C(N)=O)cccc3[nH]2)CCCN1 [Veliparib] (10000 nM),normalised viability,MDA-MB-453 [1],94.9%
same,normalised viability,DU-4475 [2],81%
same,normalised viability,CAL-85-1 [3],78.9%
same,normalised viability,HDQ-P1 [4],93.2%

# Source: the supplement of paper PMC4862054
